From PubChem BioAssay (NCI) come the findings set out here.

What all share (test): NCI anticancer screen, dose series, 48 h
Assay [1] relates to HS 578T breast.
The test system of assay [2] is NCI-H460 lung.
Assay [3] relates to HCT-15 colon.
In assay [4] the test system is HCC-2998 colon.
Assay [5] deals with PC-3 prostate.
Assay [6] deals with IGROV1 ovarian.
Assay [7] concerns NCI/ADR-RES ovarian.
In assay [8] the test system is UACC-62 melanoma.
The subject of assay [9] is SK-OV-3 ovarian.
In assay [10] the test system is CAKI-1 renal.

Structures are written as SMILES.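 A five-concentration, 48-hour dose response in 96-well plates underlies each endpoint, interpolated linearly between surrounding concentrations. TGI marks complete inhibition of growth.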

With `CN1CN(c2ccccc2)C2(CCN(C(=O)OC(C)(C)C)CC2)C1=O`, the TGI in assay [1], in assay [2], in assay [3], in assay [4], in assay [5] and in [6] was over 100 µM each time. Further, the TGI in [7], in assay [8], in [9] and in [10] was over 100 µM in each case.
As for `COc1cc(/C=[N+](\[O-])c2ccccc2Cl)ccc1OC(=S)S`, the TGI in [1], in assay [2], in assay [3], in assay [4], in assay [5] and in assay [6] was over 100 µM in each case. The TGI in assay [7] was 76.4 µM; in [8], 99.7 µM; in assay [9], over 100 µM; in [10], over 100 µM.
Regarding `O=C(N/N=C/c1ccc(O)cc1)NNCCO`, the TGI in [1], in assay [2], in [3], in assay [4], in assay [5] and in [6] was over 100 µM throughout. The TGI in assay [7], in assay [8], in [9] and in [10] was over 100 µM each time.
For `Cc1ccnc2[nH]c(-c3ccc(Cl)cc3)cc(=O)c12`, the TGI in [1], in [2], in assay [3], in [4], in assay [5] and in assay [6] was over 100 µM in each case. The TGI is over 100 µM in [7], over 100 µM in assay [8], over 62.1 µM in [9] and over 100 µM in assay [10].
With `COc1cc([C@@H]2c3cc4c(cc3[C@H](OC3OC5COC(C(C)C)OC5C(O)C3O)C3COC(=O)[C@@H]32)OCO4)cc(OC)c1OC` (stereo not given in full), the TGI in [1] is over 30.9 µM; in assay [2] it was 7.18 µM; in assay [3] it was 94.1 µM; in assay [4], 21.7 µM; in assay [5], 22.4 µM; in assay [6], 12.5 µM. In addition, the TGI in assay [7] is over 79.5 µM; in assay [8] it was 26.6 µM; in assay [9], over 100 µM; in assay [10], 17.5 µM.
In the case of `C1=Nc2ccc(cc2)-c2ccc(cc2)N=Cc2ccccc2OCc2cccc(n2)COc2ccccc21`, the TGI in [1] was 47 µM; in assay [2], over 100 µM; in [3], over 100 µM; in [4], over 100 µM; in [5], over 100 µM; in assay [6], over 100 µM. Besides, the TGI in [7], in assay [8], in [9] and in assay [10] was over 100 µM throughout.
Regarding `O=C1/C(=C/Cc2ccco2)N=C(c2ccccc2)N1c1nc2ccc(Sc3ccccc3)cc2[nH]1`, the TGI in assay [1] is 50.7 µM; in assay [2] it was over 100 µM; in [3], over 100 µM; in assay [4], 40.6 µM; in [5] it was 53.6 µM; in assay [6], over 100 µM. The TGI in assay [7] is 72.4 µM; in assay [8], 83.1 µM; in [9], 84.6 µM; in assay [10], over 100 µM.
For `COC(=O)C1=C(C(=O)OC)SC2(S1)C(C(=O)OC)=C(C(=O)OC)Sc1c2ssc1=O`, the TGI in assay [1] came to 13.4 µM; in [2], 8.76 µM; in assay [3], 1.57 µM; in assay [4], 2.72 µM; in assay [5], 3.75 µM; in [6] it was 3.63 µM. The TGI in [7] amounted to 2.82 µM; in [8], 1.37 µM; in assay [9], 24.8 µM; in [10] it was 2.93 µM.
Take `Cc1ccc(S(=O)(=O)N(CC(O)COc2ccccc2)c2ccccc2Cl)cc1` (stereo not given): the TGI in assay [1] amounted to 26.4 µM; in assay [2], 36.2 µM; in [3], 29.3 µM; in assay [4], 37 µM; in assay [5], 30.8 µM; in assay [6] it was 25.1 µM. For the same compound, the TGI in [7] stood at 37.8 µM; in assay [8], 21.5 µM; in assay [9], 52 µM; in [10] it was 44.3 µM.
With `COC(=O)c1cc(NC(=O)Cn2c3ccccc3c3ccccc32)cn1C`, the TGI in assay [1] is 42.4 µM; in assay [2], over 100 µM; in assay [3] it was over 100 µM; in [4], over 100 µM; in assay [5], over 100 µM; in assay [6], over 100 µM. The TGI in [7] was over 100 µM; in [8], 73.9 µM; in assay [9] it was 89.2 µM; in assay [10], over 100 µM.
In the case of `CC(=O)OC1CC[C@@]2(C)C(=CC[C@@H]3[C@@H]2CC[C@]2(C)Nc4c(cnn4-c4ccc(F)cc4)C[C@@H]32)C1` (stereo not given in full), the TGI in assay [1], in assay [2], in [3], in assay [4], in assay [5] and in assay [6] was over 100 µM in each case. In addition, the TGI is over 100 µM in [7], over 71.1 µM in assay [8], over 100 µM in assay [9] and 42.8 µM in [10].
`COc1cc2c(cc1OC)C/C(=N\O)c1cc(OC)c(OC)cc1/C=C\2`: the TGI was 15.1 µM in assay [1]; over 29.4 µM in assay [2]; over 100 µM in assay [3]; 31.8 µM in assay [4]; over 100 µM in assay [5]; 72.8 µM in assay [6]. In addition, the TGI in assay [7] was 89.3 µM; in assay [8], over 58 µM; in assay [9] it was over 85.3 µM; in [10], over 29.4 µM.
For `CCc1c[n+]2c(cc1C1=CN3c4ccccc4[C@]45CCN6C/C(=C/CO)[C@H](C[C@H]64)[C@@H]([C@@H]1O)[C@H]35)-c1[nH]c3ccccc3c1CC2`, the TGI in assay [1], in [2], in assay [3], in assay [4], in assay [5] and in assay [6] was over 50 µM each time. Further, the TGI in [7], in [8], in assay [9] and in assay [10] was over 50 µM throughout.
With `CCOP(=O)(OCC)C(Cc1cn(S(=O)(=O)c2ccc(C)cc2)cn1)C(=O)O` (stereo not given), the TGI in [1], in [2], in [3], in assay [4], in assay [5] and in assay [6] was over 100 µM throughout. Besides, the TGI in [7], in assay [8], in [9] and in assay [10] was over 100 µM throughout.
For the compound `O=C(NC12CC3CC(CC(C3)C1)C2)n1cnc2c(Cl)ncnc21`, the TGI in assay [1] was 97.7 µM; in [2] it was 75.8 µM; in [3], over 100 µM; in [4], 38.9 µM; in assay [5] it was 66.6 µM; in assay [6], 35.4 µM. The TGI in [7] was over 100 µM; in assay [8], over 100 µM; in assay [9] it was 79.4 µM; in assay [10] it was over 100 µM.
For the compound `c1ccc(C(OCCN2CC3CCC(C2)N3)c2ccccc2)cc1`, the TGI in [1] is over 100 µM; in assay [2] it was over 100 µM; in assay [3], over 100 µM; in assay [4], 32.3 µM; in assay [5], over 100 µM; in [6], over 100 µM. Moreover, the TGI in assay [7] was over 100 µM; in [8], 64.3 µM; in [9] it was over 100 µM; in assay [10], over 100 µM.
`COc1c(C(=O)CC2c3c(cc4oc(C)cc(=O)c4c3OC)OC(=N)C2c2nc3ccccc3[nH]2)c(O)c(OC)c2occc12` (stereo not given): the TGI in assay [1], in assay [2], in assay [3], in assay [4], in assay [5] and in assay [6] was over 100 µM in each case. The TGI in [7], in [8], in assay [9] and in [10] was over 100 µM each time.
`CN(C)CC(O)CNC(=O)Nc1ccccc1` (stereo not given): the TGI in assay [1], in assay [2], in [3], in assay [4], in [5] and in assay [6] was over 100 µM each time. Besides, the TGI in assay [7], in assay [8], in assay [9] and in assay [10] was over 100 µM in each case.
Regarding `O=S1(=O)OCCOS(=O)(=O)C1C1c2ccccc2-c2ccccc21`, the TGI in assay [1] was over 100 µM; in [2], 33.7 µM; in [3], over 100 µM; in assay [4] it was over 100 µM; in [5], over 100 µM; in assay [6] it was over 100 µM. The TGI was 85.1 µM in [7], over 100 µM in assay [8], over 100 µM in assay [9] and 98.5 µM in [10].
As for `O=C1C(Nc2ccc(S(=O)(=O)Nc3cnc4ccccc4n3)cc2)=CC(=Nc2ccc(S(=O)(=O)Nc3cnc4ccccc4n3)cc2)c2ccccc21`, the TGI was over 100 µM in assay [1]; 31.7 µM in assay [2]; 33 µM in assay [3]; 31.3 µM in assay [4]; 52.9 µM in assay [5]; 37.4 µM in assay [6]. The TGI was over 100 µM in assay [7], 33.6 µM in assay [8], 31 µM in assay [9] and 31.2 µM in assay [10].
As for `Cn1c(SCc2ccc([N+](=O)[O-])cc2)nnc1C12CC3CC(CC(C3)C1)C2`, the TGI in assay [1], in assay [2], in [3], in assay [4], in [5] and in assay [6] was over 10 µM each time. Besides, the TGI in [7], in assay [8], in assay [9] and in [10] was over 10 µM throughout.
`CC(NC(=O)C(NC(=O)C(NC(=O)C(F)(F)F)C(C)C)C(C)C)C(=O)Oc1c(Cl)c(Cl)c(Cl)c(Cl)c1Cl` (stereo not given): the TGI in [1], in assay [2], in assay [3], in [4], in [5] and in assay [6] was over 100 µM each time. Moreover, the TGI in assay [7], in assay [8], in assay [9] and in [10] was over 100 µM each time.
Take `CN(CCCNC(=O)c1[nH]nc2c1ccc1ccccc12)CCCNC(=O)c1[nH]nc2c1ccc1ccccc12`: the TGI is 33.5 µM in assay [1]; 38 µM in assay [2]; 31.2 µM in assay [3]; 4.13 µM in assay [4]; 27.9 µM in assay [5]; 30.9 µM in [6]. Further, the TGI in assay [7] was over 100 µM; in [8] it was 21.6 µM; in [9], 34.2 µM; in assay [10], 33.6 µM.
As for `CNC(=O)/C(C#N)=C(\N)N1CCCC1`, the TGI in assay [1], in [2], in assay [3], in assay [4], in assay [5] and in [6] was over 100 µM in each case. In addition, the TGI in assay [7], in assay [8], in assay [9] and in [10] was over 100 µM in each case.
On to `C=c1c2ccccc2oc2nc3[nH]c(N)c(C#N)c(N)c3c(=N)c12`, for which the TGI is 86.2 µM in assay [1]; over 100 µM in assay [2]; over 100 µM in [3]; 66.7 µM in assay [4]; 66.9 µM in assay [5]; 42.5 µM in assay [6]. Further, the TGI in assay [7], in assay [8], in assay [9] and in assay [10] was over 100 µM each time.
`COc1ccc2cc(CNCCOCCOCCNCc3ccc4cc(OC)ccc4c3)ccc2c1`: the TGI in [1] is 3.46 µM; in assay [2], 1.51 µM; in assay [3], 1.63 µM; in assay [4], 0.319 µM; in assay [5] it was 3.16 µM; in [6], 3.45 µM. In addition, the TGI in assay [7] was found to be 3.02 µM; in assay [8] it was 3.38 µM; in assay [9], 3.28 µM; in assay [10], 3.22 µM.
